Source: the NIST ThermoML archive (doi:10.1021/acs.jced.9b00041)
± gives the expanded uncertainty stated by the source.

What was measured:
[1] = 298.15 K; 101.33 kPa; Liquid; Vibrating tube method
[2] = wn = mass fraction of the nth substance listed; details: 298.15 K; 100 kPa; Liquid; Vibrating tube method; w2 = 0.089

Row | mass density [1] | mass density [2] | SMILES
1 | 1202.57 ± 35 kg/m3 | – | CC(O)C(=O)O (centres undefined) [2-hydroxypropanoic acid]
2 | – | 1202.57 ± 10 kg/m3 | CC(O)C(=O)O (centres undefined) [2-hydroxypropanoic acid] + O
3 | 1135.71 ± 10 kg/m3 | – | CC(=O)CCC(=O)O [4-oxopentanoic acid]

Row | SMILES | mass density [1] | mass density [2]
4 | CCCC[n+]1ccn(C)c1.O=S(=O)([N-]S(=O)(=O)C(F)(F)F)C(F)(F)F | 1436.46 ± 10 kg/m3 | –
